# Laboratory results as given in patent US20090176711A1, “INHIBITORS OF AMYLOID PRECURSOR PROTEIN PROCESSING” (priority 2008, published 2009).
# Entries after “also recorded” stand apart in the source; their conditions may differ. No end group written: not given here.
# What was measured:
# [1] = test system: APP processing in HEK293-APP cells; assay: APP inhibitor activity on HEK293-APP cells (βCTF Western blot); type: cell-based, human; conditions: γ-secretase inhibitor and cholesterol added
# Description: In the neuronal cells of the brain, APP is processed by α-secretase or β-secretase. To investigate the effects of the inhibitors on the cell, a cell based assay system was developed as described in FIG. 10. C-terminal fragment of APP remaining on the cell membrane was detected by Western blot. The resulting C-terminal fragments, αCTF or βCTF are further processed by γ-secretase. However, if the cells are treated with the γ-secretase inhibitor, this processing is blocked. As a result, αCTF or βCTF accumulate in the cell. If β-secretase inhibitor or APP inhibitor is added, this processing is blocked and βCTF disappears.
# In addition, γ-secretase inhibitor and cholesterol were added to the cells to increase βCTF level. Commercially available peptide-based β-secretase inhibitor was included as control (Lane 6, FIG. 11). To detect the N-terminal fragment of β-amyloid which is a product of APP processing, 6E10 antibody was employed. […] Recently, it has been reported that the commercially available peptide-based inhibitor had to be linked to an oligoarginine transporter peptide to have inhibitory activity against cells. Therefore, mimetic approach is adopted to produce cell permeable analogs. (Chang et al. J. Neurochemistry 2004; 89:1409-1416).
# After confirming the ability of the oligo-arginine coupled APP inhibitors to enter the cells, the inhibitors were applied to HEK293-APP cells overexpressing APP to test their inhibitory activities on APP processing. […] This inhibitor started to show significant inhibitory activity beginning from 0.1 μM (lower panel).
# HEK293-APP cells = assay: Transport of peptides into cells (FITC label); type: cell-based, human
# Source text: To overcome the problem of APP inhibitor's inability to penetrate across the cell membrane, APP inhibitors were coupled with oligo-arginine (R9 means 9 Arginines), which is known to be a transporter peptide. These coupled peptides were labeled with FITC (Fluorescein isothiocyanate) using a linker AHX (aminohexanoic acid) to investigate whether the inhibitors pass through the cell membrane. FITC-AHX-c-Sub M-R9 and FITC-AHX-c-Sub MΔN1C1-R9 were made.
# Oligo-arginine coupled APP inhibitors that were labeled with FITC were added to HEK293-APP cells to see whether the peptides pass through the cell membrane.
# [2] = target: T1, Substrate W (Sub W, SEVKMDAEFR; β-secretase cleavage site of wild type APP) (Homo sapiens, UniProt P05067); assay: Binding of biotin-labeled Substrate W to immobilized complementary (HC) peptides
# T1 construct: […]; purchased Peptron, Inc; host or cells: chemical synthesis
# Description: (§1) Complementary peptides (0.2, 2, 20, and 200 μM) were dissolved in phosphate buffered saline (PBS) (pH 7.4) and fixed to microtiter wells for 5 hr at 37° C. The wells were blocked with blocking buffer (3% BSA/PBS) for 1 hr at 37° C. Either N-terminally biotinylated Substrate W or M (20 μM) in blocking buffer was added and incubated for overnight at 4° C. Streptavidin-horseradish peroxidase in blocking buffer was added to detect resulting bound substrates. The plate was incubated for 2 hr at room temperature (RT), followed by addition of 3,3′,5,5′-tetramethyl-benzidine (TMB) as substrate for horseradish peroxidase for color reaction.
# In particular, for Substrate W, complementary peptides (200 μM) dissolved in phosphate buffered saline (PBS) (pH 7.4) were chemically coupled to Reacti-Bind Maleic Anhydride Activated Polystyrene wells (Pierce Biotechnology, Inc.) for overnight at room temperature (RT). Remaining active sites of the plate were inactivated by adding ethanolamine (1 M) for 1 hr at RT. The wells were blocked with blocking buffer (3% BSA/PBS) for 1 hr at RT. N-terminally biotinylated Substrate W (20 μM) in blocking buffer was added and incubated for 3 hr at RT. Streptavidin-horseradish peroxidase in blocking buffer was added to detect resulting bound substrates. The plate was incubated for 2 hr at room temperature (RT), followed by addition of 3,3′,5,5′-tetramethyl-benzidine (TMB) as substrate for horseradish peroxidase for color reaction.
# (§2) Reacti-Bind™ maleic anhydride-activated polystyrene plate (Pierce, IL, USA) was coated with 50 μl of HC peptide (200 μM in distilled water) by chemical coupling for 3 h at room temperature (RT) and washed three times with phosphate buffered saline (PBS) containing 0.05% tween 20 (PBST). The plate was blocked with blocking buffer (0.5% gelatin in PBS) for 1 h at RT. After discarding blocking buffer, biotinylated BACE1 substrates (200 μM) in blocking buffer was applied on the plate and incubated for 2.5 h at RT. Each well was washed three times with PBST. The bound biotinylated BACE1 substrates were detected by incubation with streptavidin-horseradish peroxidase (Str-HRP, 125 mU/ml in blocking buffer) for 2 h at RT. Color reaction was carried out with 50 μl of 3,3′,5,5′-Tetramethylbenzidine Liquid Substrate (Sigma-Aldrich, MO, USA). After stopping the reaction by addition of an equal volume of 1 N HCl, absorbance at 450 nm was read in an automated ELISA reader (EL 312e, Bio-Tek Instruments, VT, USA). All assays were carried out in duplicate.
# [3] = test system: cleavage of Substrate M by β-secretase; assay: Inhibition of cleavage of Substrate M by β-secretase by complementary and deletion peptides (Examples 1, 5, 6; assay format not stated); type: biochemical; conditions: for concentration dependent inhibitory activity, activity group: various concentrations, Substrate M (FIG. 8)
# Description: So far we have focused on c-Sub M peptide. Serial deletions were made from N-terminus or C-terminus of c-Sub M (FIG. 5), and we investigated effect of the deletions on the cleavage of Substrate M. The optimum peptide/substrate ratio for inhibition on the cleavage of substrate was determined by observing the inhibition percentage at various peptide/substrate ratios (FIG. 4). Subsequently, the inhibitory activity of the deletion peptides were tested at 10 inhibitor/substrate ratio and the concentration of the Substrate M was 50 μM. Deletion of the first two amino acids from the N-terminus had little effect on the activity and deletion of five amino acids from the C-terminus of c-Sub M had little effect on the inhibitory activity (FIG. 6). Further deleted peptides were tested for inhibitory activity on the cleavage of Substrate M (FIG. 7).
# The above-mentioned peptides that have inhibitory activity were tested at various concentrations for their inhibitory activities on their mutant substrate Substrate M (FIG. 8).
# rhBACE1 = target: T2, rhBACE1 (Homo sapiens, UniProt P56817); assay: ELISA binding of rhBACE1 to immobilized c-Sub M
# T2 construct: purchased R&D Systems, Inc
# T2 sequence (P56817 46-501): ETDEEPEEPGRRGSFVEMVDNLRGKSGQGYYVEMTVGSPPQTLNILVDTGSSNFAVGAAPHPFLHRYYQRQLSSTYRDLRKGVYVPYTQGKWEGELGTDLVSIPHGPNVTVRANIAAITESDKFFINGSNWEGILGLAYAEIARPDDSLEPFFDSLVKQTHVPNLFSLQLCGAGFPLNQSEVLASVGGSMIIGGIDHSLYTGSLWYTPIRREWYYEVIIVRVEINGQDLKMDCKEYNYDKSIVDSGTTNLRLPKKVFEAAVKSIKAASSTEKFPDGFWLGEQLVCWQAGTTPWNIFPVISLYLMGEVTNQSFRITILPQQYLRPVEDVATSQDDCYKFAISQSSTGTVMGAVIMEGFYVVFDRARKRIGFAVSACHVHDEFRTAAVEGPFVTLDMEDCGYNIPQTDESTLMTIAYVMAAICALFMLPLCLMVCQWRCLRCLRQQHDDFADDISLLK
# Source text: In one embodiment of the present invention, four HC decapeptides targeted to either wild type APP or APPsw may be designed. […] Therefore, there is possibility that c-Sub M or any compounds derived from c-Sub M may inhibit production of Aβ from wild type APP in cells.
# [4] = test system: Substrate M (Sub M, SEVNLDAEFR; β-secretase cleavage site of APPsw); assay: Binding of biotin-labeled Substrate M to immobilized complementary (HC) peptides; conditions: for binding activity for Sub M: HC peptides chemically coupled to plate, bio-Sub M
# Description: as §1, §2
# [5] = test system: cleavage of Sub M by rhBACE1; assay: HPLC analysis of the cleavage of Sub M by rhBACE1; type: biochemical, human; conditions: 25-fold amount of inhibitor, 420 nM β-secretase
# Description: Substrate M (100 μM) was preincubated with complementary peptides ([…]) in assay buffer (100 μl) overnight at RT. rhBACE (140 nM) in assay buffer was added and incubated for 11 hr at RT. Cleavage products of Substrate M by rhBACE were quantitated after separation by C-18 reversed-phase column chromatography (GRACE VyDAC).
# One of the advantages of the APP inhibitor described in the present invention is that it is a peptide or a mimetic that bind to the β-secretase cleavage site of APP, thus not affecting other β-secretase substrates. To confirm the specificity of the inventive APP inhibitor, two different types of substrates were used, APP Sub M and ST6Ga11. Both substrates are cleaved by β-secretase under normal conditions and the effect of the inventive APP inhibitor on the substrate cleavage was monitored by HPLC (See the schematic diagram in FIG. 16.) To carry out these experiments, the concentration of β-secretase required for cleavage of both substrates was determined as shown in FIG. 17. For substantial cleavage of ST6Ga11 substrate, 420 nM of the enzyme was required. Therefore, 420 nM of β-secretase was used for the following experiment.
# Reversed-phase HPLC was also used to analyze the products of enzyme action in vitro. […] The cleavage products were identified at 215 nm and quantitated by integrating the area under each peak. […]
# [6] = test system: γ-secretase (membrane fractions of N2a cells); assay: γ-Secretase activity assay on membrane fractions of N2a cells; type: biochemical, mouse; conditions: 200 μM peptide, 12.5 μM fluorogenic substrate, 1 hour preincubation
# Description: Since γ-secretase is composed of four components, cloning of γ-secretase gene is impossible. Therefore, cell extracts were used as γ-secretase source. To obtain the cell extracts, after cell lysis with extraction buffer, the lysate was centrifuged at 10,000×g for 1 minute. Afterward, 2× reaction buffer and fluorogenic substrate was mixed and added to the cell lysate. Then, this mixture was incubated at 37° C. and γ-secretase activity was detected at excitation 335 to 355 nm and emission 495 to 510 nm.
# γ-Secretase activity assay was performed on membrane fractions of N2a cells in the presence of several complementary peptides. After 12.5 μM fluorogenic substrate and 200 μM each of the complementary peptides were preincubated for 1 hour, γ-secretase was added to the mixture. In the course of time, the fluorogenic substrate was cleaved by the γ-secretase.
# [7] = test system: γ-secretase cleavage in KEK293 APP cells; assay: Cell based γ-secretase assay (α-CTF Western); set-up: species or system human; conditions: cells treated for 9 hours
# Description: In order to test these peptides in the cell for their inhibitory effect on γ-secretase cleavage, a cell based assay was developed. After KEK293 APP cells were cultured in 6 well culture plates with 90% confluency, the cells were treated for 9 hours with N-[N-(3,5-difluorophenacetyl)-L-alanyl]-(S)-phenylglycine t-butyl ester (DAPT) (Dovey H F et al, J. Neurochemistry 2001;76:173-181), which is a known γ-secretase inhibitor, and complementary peptides. The cells in each well were lysed and these lysates were separated with 15% tris-tricine gel. Western analysis was performed with R1 antibody as primary antibody and goat anti-rabbit-HRP as secondary antibody.
molecule,measurement,setting,value
"SEFCIQIHFR-NH2 [c-Sub M, SEFCIQIHFR]",inhibitory activity on APP processing (βCTF),[1],does not inhibit the processing of APP in cells; also recorded: none of the inhibitors tested showed inhibitory activity
same,transport into the cells,HEK293-APP cells,does not enter the cells
same,binding to Sub W relative to c-Sub W,"[2]; HC peptides chemically coupled, bio-Sub W",4 fold
same,binding to Substrate W,"[2]; complementary peptide immobilized, biotin-labeled Substrate W",binds the wild type substrate Sub W efficiently
same,inhibition of cleavage of Substrate M by β-secretase,[3]; FIG. 4,inhibit cleavage
same,"concentration dependent inhibitory activity, activity group",[3],less activity
same,binding to rhBACE1,rhBACE1,does not bind to rhBACE1
same,binding activity for Sub M,[4],highest binding
same,binding activity for Sub M,[4]; listed as c-Sub,bound
same,binding to Substrate M,"[4]; complementary peptide immobilized, biotin-labeled Substrate M",binds to Sub M appreciably and bind and binds its substrate Sub M
same,absorbance in binding test,[4]; substrate not specified,high absorbance
"FCIQIHF (also: cyclic, mode of cyclisation not given here) [c-Sub M ΔN2C1]",Sub M cleavage blocked,[5],about 60%
same,"concentration dependent inhibitory activity, activity group",[3],most active group
PQQYRCHRQR [rCh2 (3′→5′)],inhibitory effect on γ-secretase activity,[6],about 80%
"C[C@H](NC(=O)Cc1cc(F)cc(F)c1)C(=O)N[C@H](C(=O)OC(C)(C)C)c1ccccc1 [DAPT, N-[N-(3,5-difluorophenacetyl)-L-alanyl]-(S)-phenylglycine t-butyl ester]",inhibition of γ-secretase activity in cells (α-CTF accumulation),[7],inhibits γ-secretase activity very effectively
